Results from patent publication US20230381314A1, “ATTENUATED CANCER CELLS AND METHODS RELATED THERETO” (priority 2020, published 2023).

Legend:
[1] = system: AML model (C1498 cells); assay: In vivo treatment of AML with adjuvant (chemo-immunotherapy); set-up: species or system C57BL/6J mice; conditions: leukemia-bearing mice, up to 21 days post-tumor inoculation, DOX 5 mg/kg, MPLA 20 μg
Experimental: AML model was established by intravenous injection of 5×10^6 C1498 cells on day 0. On day 8 and day 15, saline, LNT cell+Adjuvant, free DOX and LNT cell/DOX+Adjuvant were administrated intravenously with DOX dose of 5 mg/kg and adjuvant (monophosphoryl lipid A, MPLA) 20 μg per mouse. Specifically, MPLA was intravenously injected 10 h post-injection of LNT cell or LNT cell/DOX. The bioluminescence images of mice were captured every 3 days. The exposure time was 2 min. On day 13, 400 μL blood was collected via the orbital vein. 200 μL blood was treated with ACK buffer and centrifuged at 800 g for 8 min to obtain pellets of white blood cells. After staining with BV421-CD3, PE-CD4 and APC-CD8, the samples were analyzed by flow cytometry. Another 200 μL blood in blood serum collection tubes (BD Microtainer 365967) was centrifuged at 3000 rpm for 10 min. The upper serum was detected with the following ELISA kits: IFN-γ (BioLegend 430804) and TNF-α (BioLegend 430904).

[2] = system: C1498 cells
Experimental: The in vitro cytotoxicity of LNT cell/DOX was determined via MTT assay. Briefly, C1498 cells were cultured in 24-well plate equipped with 1 μm Transwell with a cell density of 2×10^6 per well. And LNT cell/DOX solution with different DOX concentrations was added in the chamber of Transwell. 24 h later, the Transwell was discarded and 80 μL MTT solution (5 mg/mL) was added to each well. The cells were incubated for further 4 h at 37° C. The upper medium was gently aspirated and 600 μL DMSO was added to dissolve the formed formazan. OD value was detected at 490 nm. IC50 values were analyzed by Graphpad Prism 7.0.

Which “AML progression (bioluminescence of AML cancer cells)” value [1] does the source give for `COc1cccc2c1C(=O)c1c(O)c3c(c(O)c1C2=O)C[C@@](O)(C(=O)CO)C[C@@H]3O[C@H]1C[C@H](N)[C@H](O)[C@H](C)O1.Cl` [free DOX, Doxorubicin hydrochloride] here?
The value was “partially inhibited”.

What about the “IC50, in vitro cytotoxicity against C1498 cells” value [2] of the same molecule?
Its value is 0.32 µg/mL.
